Test results as given in patent US9359358B2, “Cyclohexyl azetidine derivatives as JAK inhibitors” (Incyte Holdings Corporation, priority 2011, dated 2016).
Counter-ions that a name gives are not always drawn.

Assays:
human JAK1 = biological target: T1, human JAK1 (Homo sapiens, UniProt P23458); assay: In Vitro JAK Kinase Assay (HTRF, phosphorylation of a biotinylated peptide), JAK1; assay type: biochemical; details: catalytic domain a.a. 837-1142, assay of Example A
T1 construct: human JAK1 (a.a. 837-1142); His tag (N); made in house; host or cells: insect cells (baculovirus)
T1 sequence (P23458 849-1154): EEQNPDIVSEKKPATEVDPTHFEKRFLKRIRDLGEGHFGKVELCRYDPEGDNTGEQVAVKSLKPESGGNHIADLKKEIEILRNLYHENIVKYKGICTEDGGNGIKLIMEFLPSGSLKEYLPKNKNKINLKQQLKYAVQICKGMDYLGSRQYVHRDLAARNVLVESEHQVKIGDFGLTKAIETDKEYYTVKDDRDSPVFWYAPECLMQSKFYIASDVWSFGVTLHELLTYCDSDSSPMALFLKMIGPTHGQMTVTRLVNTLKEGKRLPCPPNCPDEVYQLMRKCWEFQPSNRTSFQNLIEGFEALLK
Method: (§1) The catalytic activity of JAK1, JAK2 or JAK3 was assayed by measuring the phosphorylation of a biotinylated peptide. The phosphorylated peptide was detected by homogenous time resolved fluorescence (HTRF). […] Reactions were carried out at room temperature for 1 hour and then stopped with 20 μL 45 mM EDTA, 300 nM SA-APC, 6 nM Eu-Py20 in assay buffer (Perkin Elmer, Boston, Mass.). Binding to the Europium labeled antibody took place for 40 minutes and HTRF signal was measured on a Fusion plate reader (Perkin Elmer, Boston, Mass.).

human JAK2 = biological target: T2, human JAK2 (Homo sapiens, UniProt O60674); assay: In Vitro JAK Kinase Assay (HTRF, phosphorylation of a biotinylated peptide), JAK2; assay type: biochemical; details: assay of Example A
T2 construct: JAK2 (a.a. 828-1132); His tag (N); made in house; host or cells: insect cells (baculovirus)
T2 sequence (O60674 828-1132): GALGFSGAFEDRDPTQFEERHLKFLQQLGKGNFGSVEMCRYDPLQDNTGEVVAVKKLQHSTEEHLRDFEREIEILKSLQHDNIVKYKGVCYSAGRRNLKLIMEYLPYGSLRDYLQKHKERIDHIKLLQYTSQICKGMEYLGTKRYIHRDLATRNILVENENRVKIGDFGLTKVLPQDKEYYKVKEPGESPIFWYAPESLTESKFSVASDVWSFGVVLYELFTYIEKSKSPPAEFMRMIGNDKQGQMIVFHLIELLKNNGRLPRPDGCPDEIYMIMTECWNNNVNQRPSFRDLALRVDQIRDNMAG
Method: as §1

SMILES	IC50 (human JAK1; Table 4)	JAK2/JAK1 IC50 ratio (human JAK2; Table 4)	IC50 (human JAK1; Table 5)	JAK2/JAK1 IC50 ratio (human JAK2; Table 5)
N#CCC1(n2cc(-c3ncnc4[nH]ccc34)cn2)CN([C@H]2CC[C@@H](Oc3cc(CN4CC[C@@H](O)C4)cc(C(F)(F)F)n3)CC2)C1 [Example 95, {1-(cis-4-{[4-{[(3R)-3-hydroxypyrrolidin-1-yl]methyl}-6-(trifluoromethyl)pyridin-2-yl]oxy}cyclohexyl)-3-[4-(7H-pyrrolo[2,3-d]pyrimidin-4-yl)-1H-pyrazol-1-yl]azetidin-3-yl}acetonitrile pentakis(trifluoroacetate)]			< 10 nM	≧10
N#CCC1(n2cc(-c3ncnc4[nH]ccc34)cn2)CN([C@H]2CC[C@@H](Oc3cc(CN4CCC[C@@H]4CO)cc(C(F)(F)F)n3)CC2)C1.O=C(O)C(F)(F)F.O=C(O)C(F)(F)F.O=C(O)C(F)(F)F (stereo in doubt) [Example 93, {1-(cis-4-{[4-{[(2R)-2-(hydroxymethyl)pyrrolidin-1-yl]methyl}-6-(trifluoromethyl)pyridin-2-yl]oxy}cyclohexyl)-3-[4-(7H-pyrrolo[2,3-d]pyrimidin-4-yl)-1H-pyrazol-1-yl]azetidin-3-yl}acetonitrile tris(trifluoroacetate)]			< 10 nM	≧10
CCCNCc1cc(O[C@H]2CC[C@@H](N3CC(CC#N)(n4cc(-c5ncnc6[nH]ccc56)cn4)C3)CC2)nc(C(F)(F)F)n1.O=C(O)C(F)(F)F.O=C(O)C(F)(F)F.O=C(O)C(F)(F)F [Example 32, {1-(cis-4-{[6-[(propylamino)methyl]-2-(trifluoromethyl)pyrimidin-4-yl]oxy}cyclohexyl)-3-[4-(7H-pyrrolo[2,3-d]pyrimidin-4-yl)-1H-pyrazol-1-yl]azetidin-3-yl}acetonitrile tris(trifluoroacetate)]	< 10 nM	≧10		
N#CCC1(n2cc(-c3ncnc4[nH]ccc34)cn2)CN([C@H]2CC[C@@H](Oc3cc(CN4CCC[C@H]4CO)nc(C(F)(F)F)n3)CC2)C1 [Example 28, {1-(cis-4-{[6-{[(2R)-2-(hydroxymethyl)pyrrolidin-1-yl]methyl}-2-(trifluoromethyl)pyrimidin-4-yl]oxy}cyclohexyl)-3-[4-(7H-pyrrolo[2,3-d]pyrimidin-4-yl)-1H-pyrazol-1-yl]azetidin-3-yl}acetonitrile tris(trifluoroacetate) (salt)]	< 10 nM	≧10		
CN(C)C(=O)c1cc(O[C@H]2CC[C@@H](N3CC(CC#N)(n4cc(-c5ncnc6[nH]ccc56)cn4)C3)CC2)nc(C(F)(F)F)n1 [Example 46, 6-[(cis-4-{3-(cyanomethyl)-3-[4-(7H-pyrrolo[2,3-d]pyrimidin-4-yl)-1H-pyrazol-1-yl]azetidin-1-yl}cyclohexyl)oxy]-N,N-dimethyl-2-(trifluoromethyl)pyrimidine-4-carboxamide bis(trifluoroacetate)]	< 10 nM	≧10		
N#CCC1(n2cc(-c3ncnc4[nH]ccc34)cn2)CN([C@H]2CC[C@@H](Oc3cc(CNC4CCC4)cc(C(F)(F)F)n3)CC2)C1 [Example 77, {1-(cis-4-{[4-[(cyclobutylamino)methyl]-6-(trifluoromethyl)pyridin-2-yl]oxy}cyclohexyl)-3-[4-(7H-pyrrolo[2,3-d]pyrimidin-4-yl)-1H-pyrazol-1-yl]azetidin-3-yl}acetonitrile tris(trifluoroacetate)]			< 10 nM	≧10
N#CCC1(n2cc(-c3ncnc4[nH]ccc34)cn2)CN([C@H]2CC[C@@H](Oc3cc(CNCC4CC4)nc(C(F)(F)F)n3)CC2)C1.O=C(O)C(F)(F)F.O=C(O)C(F)(F)F.O=C(O)C(F)(F)F [Example 9, {1-(cis-4-{[6-{[(cyclopropylmethyl)amino]methyl}-2-(trifluoromethyl)pyrimidin-4-yl]oxy}cyclohexyl)-3-[4-(7H-pyrrolo[2,3-d]pyrimidin-4-yl)-1H-pyrazol-1-yl]azetidin-3-yl}acetonitrile tris(trifluoroacetate)]	< 10 nM	≧10		
N#CCC1(n2cc(-c3ncnc4[nH]ccc34)cn2)CN([C@H]2CC[C@@H](Oc3cc(CNCC(O)CO)nc(C(F)(F)F)n3)CC2)C1 (stereo partly drawn) [Example 33, {1-(cis-4-{[6-{[(2,3-dihydroxypropyl)amino]methyl}-2-(trifluoromethyl)pyrimidin-4-yl]oxy}cyclohexyl)-3-[4-(7H-pyrrolo[2,3-d]pyrimidin-4-yl)-1H-pyrazol-1-yl]azetidin-3-yl}acetonitrile tris(trifluoroacetate) (salt)]	< 10 nM	≧10		
N#CCC1(n2cc(-c3ncnc4[nH]ccc34)cn2)CN([C@H]2CC[C@@H](Oc3cc(CNCC4(CO)CC4)nc(C(F)(F)F)n3)CC2)C1 [Example 38, {1-(cis-4-{[6-[({[1-(hydroxymethyl)cyclopropyl]methyl}-amino)methyl]-2-(trifluoromethyl)pyrimidin-4-yl]oxy}cyclohexyl)-3-[4-(7H-pyrrolo[2,3-d]pyrimidin-4-yl)-1H-pyrazol-1-yl]azetidin-3-yl}acetonitrile tris(trifluoroacetate) (salt)]	< 10 nM	≧10		
CN(CCO)C(=O)c1cc(O[C@H]2CC[C@@H](N3CC(CC#N)(n4cc(-c5ncnc6[nH]ccc56)cn4)C3)CC2)nc(C(F)(F)F)c1 [Example 82, 2-[(cis-4-{3-(cyanomethyl)-3-[4-(7H-pyrrolo[2,3-d]pyrimidin-4-yl)-1H-pyrazol-1-yl]azetidin-1-yl}cyclohexyl)oxy]-N-(2-hydroxyethyl)-N-methyl-6-(trifluoromethyl)isonicotinamide bis(trifluoroacetate)]			< 10 nM	≧10

Further lines, with some results ahead:

IC50 (human JAK1; Table 4)	JAK2/JAK1 IC50 ratio (human JAK2; Table 4)	SMILES	IC50 (human JAK1; Table 5)	JAK2/JAK1 IC50 ratio (human JAK2; Table 5)
< 10 nM	≧10	C[C@@H](CO)NCc1cc(O[C@H]2CC[C@@H](N3CC(CC#N)(n4cc(-c5ncnc6[nH]ccc56)cn4)C3)CC2)nc(C(F)(F)F)n1 [Example 16, {1-(cis-4-{[6-({[(1S)-2-hydroxy-1-methylethyl]amino}methyl)-2-(trifluoromethyl)pyrimidin-4-yl]oxy}cyclohexyl)-3-[4-(7H-pyrrolo[2,3-d]pyrimidin-4-yl)-1H-pyrazol-1-yl]azetidin-3-yl}acetonitrile Ex 1 tris(trifluoroacetate) (salt)]		
< 10 nM	≧10	CCN(C)C(=O)c1cc(O[C@H]2CC[C@@H](N3CC(CC#N)(n4cc(-c5ncnc6[nH]ccc56)cn4)C3)CC2)nc(C(F)(F)F)n1 [Example 48, 6-[(cis-4-{3-(cyanomethyl)-3-[4-(7H-pyrrolo[2,3-d]pyrimidin-4-yl)-1H-pyrazol-1-yl]azetidin-1-yl}cyclohexyl)oxy]-N-ethyl-N-methyl-2-(trifluoromethyl)pyrimidine-4-carboxamide bis(trifluoroacetate)]		
< 10 nM	≧10	CC(C)(O)CNCc1cc(O[C@H]2CC[C@@H](N3CC(CC#N)(n4cc(-c5ncnc6[nH]ccc56)cn4)C3)CC2)nc(C(F)(F)F)n1 [Example 20, {1-(cis-4-{[6-{[(2-hydroxy-2-methylpropyl)amino]methyl}-2-(trifluoromethyl)pyrimidin-4-yl]oxy}cyclohexyl)-3-[4-(7H-pyrrolo[2,3-d]pyrimidin-4-yl)-1H-pyrazol-1-yl]azetidin-3-yl}acetonitrile tris(trifluoroacetate) (salt)]		
